Data published in patent US20110021560A1, “Compositions And Methods For Regulating Chondrocyte Proliferation In Bone Disorders” (University of Massachusetts Medical School, priority 2009, published 2011).

Assays:
fracture healing = conditions: rats (Simon et al., 2002); cited from earlier work
fracture callous = test: Mouse femur fracture model: histology and histomorphometry of fracture callous; assay type: in vivo, C57B/6 mice; conditions: for new bone formation by histomorphometry: Day 7 and Day 10, compared with controls; for amount of unmineralized chondroid matrix / callous size: Day 7 and Day 10 post fracture, vs control; for early stages of fracture repair (Safranin-O histology): animals sacrificed at Days 7, 10 and 14, oral gavage, montelukast sodium 1.5 mg/kg/Day, zileuton 45 mg/kg/Day; for fracture bridging and callous remodeling: by Day 21 (data not shown); for amount of chondroid (quantification) / percent chondroid (quantification) / total callous size (quantification): compared to control, montelukast sodium vs zileuton not significant
Excerpt: Because leukotrienes have been reported as potent inflammatory agents and may have a role as negative regulators of mesenchymal stem cell (MSC) differentiation, it was reasonable to determine as to whether inhibiting the effect of the cysteinyl leukotrienes would enhance chondrocyte proliferation in a bone healing from a fracture. See, Example II. […] Day 0 post-fracture X-rays were taken while under anesthesia. See, FIG. 3. Subsequent X-rays were taken at Days 7, 10, 14, and 21 for all animals (N=4) until the time of sacrifice. […] Histological sections for Days 7, 10, and 14 post-fracture where the differences between treated and control groups were most readily identifiable at early time points. See, FIG. 4. For example, evidence of healing was readily visible between the two treatment groups versus control as early as Day 7.
(§1) C57B/6 mice were purchased (Charles River, Inc.Q3) and housed in the animal facility at the University of Massachusetts Medical School under IACUC approved protocol. Eight- to 9-week-old animals were used in the study.
(§2) Institutional approval was obtained and all procedures were undertaken in accordance with approved IACUC methods. Animals were administered general anesthesia using IP injections of ketamine and xylazine. A midline skin incision over the knee joint was utilized and a median parapatellar arthrotomy was performed to expose the trochlear groove. A pilot hole was made using a 25 gauge needle to gain access to the femoral canal. The central cannula from a 22 gauge spinal needle was inserted into the canal and passed to the proximal femur in retrograde fashion. The wire was backed out slightly, cut, and reinserted. Wounds were closed, and the femur was held in a fixed position while a drop weight from a standard height was used to deliver a fixed traumatic injury to the mid portion of the femur, generating a fracture via three point bending, and ensuring that fractures were generated using a traumatic method with reproducible energy of injury (Marturano et al., 2008).
(§3) Medications were suspended in 1% methylcellulose (Sigma, Inc.Q6) and delivered by direct intragastric delivery. […] As the study medications are both currently FDA approved for the treatment of reactive airway disease, our dosing frequency was based on current prescription guidelines. Montelukast sodium was administered once daily by oral gavage. At the time the study began, zileuton was only approved for four times per Day dosing; as the drug needed to be administered by oral gavage and to maintain the normal sleep/awake cycle of the mouse colonies in the animal facilities, three doses of zileuton were dosed at 6-h intervals, with a 12-h break from 8 pm to 8 am. Control animals received 1% methylcellulose carrier only by a single daily oral gavage. The first dose of all medications was administered on post-fracture Day 1.
All animals were examined pre- and post-fracture using live fluoroscopy with an inverted Xiscan 1000 fluoroscope. Pre-fracture imaging was used to confirm correct positioning of the stabilizing wire, and post-fracture imaging was used to confirm correct fracture location and configuration. Additionally, standard radiographs were obtained in all animals immediately post-fracture with a high resolution MX-20 Faxitron on mammography film. Animals were anesthetized for additional X-rays to document fracture repair at 7, […] Days post-fracture. Animals were sacrificed immediately post-fracture if the fracture was not diaphyseal and transverse.
Fracture specimens were harvested at various times (7, 10, 14, and 21 Days) and fixed in a solution of 4% paraformaldehyde, 0.1% CPC in PBS for 16 h at room temperature, and then embedded in paraffin after decalcification. Embedded tissues were sectioned into […] slices, mounted on silane-coated glass slides (FisherQ7), de-paraffinized, and re-hydrated. […]

[1] = test system: fracture callous mRNA expression; test: Quantitative real-time PCR of fracture callous tissue in mouse fracture model; assay type: in vivo, C57B/6 mice; conditions: for Col 1 mRNA levels: Day 7, compared with controls (data not shown); for Runx2 mRNA levels: Day 10, vs control (montelukast sodium P<0.05; zileuton P=0.06); for osteocalcin mRNA levels: Day 10, vs control (montelukast sodium P<0.05; zileuton P=0.07); for CysLT1 receptor mRNA levels in fracture callous: Day 10, control peak expression significantly higher; for Col 10a1 mRNA levels: Day 14, vs control (P<0.01)
Excerpt: Fracture callous was harvested from animals (N=4) in the three treatment groups after sacrifice at days 7, 10, 14, and 21 and assayed for expression of chondrogenic markers by qPCR. See, FIG. 10. […] Although it is not necessary to understand the mechanism of an invention, it is believed that the expression of Sox9 and Col 2a mRNA indicate a cellular commitment to the chondrocyte phenotype.
as §1, §2
as §3, with “Montelukast sodium was administered once daily by oral gavage.” left out
Mice were sacrificed on Days 7, 10, 14, and 21 post-fracture. The fractured limb was carefully dissected free and all overlying tissue was carefully removed to expose the fracture callous. Callous tissue alone was then placed in TRIzol reagent, avoiding the underlying cortical bone. The tissue was ground using a Polytron homogenizer and total RNA was isolated as per the manufacturer's instructions (InvitrogenQ11). Any potential DNA contamination was removed by RNase-free DNase treatment. The reverse transcription reaction was performed on […] of total RNA using the First Strand Synthesis Kit and random hexamer primers (Invitrogen). Relative transcript levels were measured by real-time PCR in a […] reaction volume on 96-well plate using ABI PRISM 7000 FAST sequence detection system (Applied BiosystemsQ12), following the recommended protocol for SYBR-Green (Applied Biosystems). Transcript levels were normalized with 18S ribosomal RNA levels using primers from Applied Biosystems and SYBR-Green master mix (Applied Biosystems). The primers used for amplification are described in Table 2.
Student's t-test was performed to analyze the significance of the data for gene expression and histomorphometric analysis.

[2] = Day 10, vs control (P<0.05 for zileuton)

SMILES	fracture healing (radiographic, histological, mechanical testing) (fracture healing)	new bone formation by histomorphometry (fracture callous)	amount of unmineralized chondroid matrix (fracture callous)	callous size (fracture callous)	early stages of fracture repair (Safranin-O histology) (fracture callous)	fracture bridging and callous remodeling (fracture callous)	amount of chondroid (quantification) (fracture callous)	percent chondroid (quantification) (fracture callous)	total callous size (quantification) (fracture callous)	Col 1 mRNA levels [1]	Col 2a1 mRNA expression [1, 2]	SOX9 mRNA expression [1, 2]	Runx2 mRNA levels [1]	osteocalcin mRNA levels [1]	CysLT1 receptor mRNA levels in fracture callous [1]	Col 10a1 mRNA levels [1]	Col 2a1 mRNA expression ([1]; Day 14, vs control (P<0.05))	time of peak Sox9 mRNA levels ([1]; controls peak at day 7)	histone gene expression by qRT-PCR ([1]; data not shown)
Cc1ccc(-c2cc(C(F)(F)F)nn2-c2ccc(S(N)(=O)=O)cc2)cc1 [celecoxib]	fracture healing failed	–	–	–	–	–	–	–	–	–	–	–	–	–	–	–	–	–	–
CC(C)(O)c1ccccc1CCC(SCC1(CC(=O)O)CC1)c1cccc(C=Cc2ccc3ccc(Cl)cc3n2)c1 (centres unmarked) [montelukast sodium, [1-[[1-[3-[2-[(7-chloro-2-quinolyl)]vinyl]phenyl]-3-[2-(1-hydroxy-1-methyl-1-ethyl)phenyl]-propyl]sulfanylmethyl]-cyclopropyl]acetic acid]	–	significantly greater	markedly increased	dramatically larger	enhances	bridged the ends of the fracture and remodeled the callous to woven bone	significantly greater	significantly greater	significantly greater	decrease	not seen	not seen	higher	elevated	low	higher	elevated	peak later than controls at Day 10	–
CS(=O)(=O)c1ccc(C2=C(c3ccccc3)C(=O)OC2)cc1 [rofecoxib]	fracture healing failed	–	–	–	–	–	–	–	–	–	–	–	–	–	–	–	–	–	–
CC(c1cc2ccccc2s1)N(O)C(N)=O (centres unmarked) [zileuton]	–	significantly greater	markedly increased	dramatically larger	enhances	bridged the ends of the fracture and remodeled the callous to woven bone	significantly greater	significantly greater	significantly greater	decrease	elevated	elevated	increased	elevated	low	significantly higher	–	–	higher
